This note sets out measurements from PMC10728220, “Novel 3-(pyrazol-4-yl)-2-(1H-indole-3-carbonyl)acrylonitrile derivatives induce intrinsic and extrinsic apoptotic death mediated P53 in HCT116 colon carcinoma” (Scientific Reports, 2023).

Each structure is given as a SMILES string.

The test system of one experiment is lung carcinoma (A549). Nature of the experiment: Cytotoxic MTT assay, A549. The class given is cell-based. Particulars: Homo sapiens, 48 h treatment. As for the experimental part:
MTT protocol was performed to study the viability of cells after treatment with the tested compounds. The studied cell lines (A549 and HCT116) were cultured and grown in RPMI‐1640 media, while HFB4 cells were reserved in DMEM‐F12 media. Both media were supplemented with 10% FBS, 1% L‐glutamine, and 1% antibiotic–antimycotic mixture. The cell lines were grown at conditions of 37 °C and 5% CO2. 10 × 10^3 of A549, and HCT116 cells and the same count of normal melanocytes (HFB4) were cultured in a 96‐well plate. The selected cultured cells were kept at 37°C and 5% CO2 overnight. Then, the medium was discarded after 24 h of incubation, and 100 µL from different concentrations of the studied compounds dissolved in fresh medium without serum, with final concentrations of 100, 50, 25, 12.5, 6.25, 3.125, 1.56, and 0.78 µg/mL was added. The treated cells were then incubated for 48 h. After that, 50 µL of MTT was added into each well for 4 h for the formazan crystals to be formed. Finally, 200 µl of 10% sodium dodecyl sulphate (SDS) was added to each well, and plates were kept at room temperature overnight to allow the reaction to be stopped. The optical density at 575 nm was read using a microplate multi-well reader, and the percentage of cell viability was calculated. The dose–response curve was drawn to calculate the IC50 values for each compound using the prism GraphPad 5 program, [84]. 5 Fluorouracil, a commercial anticancer drug was used as a reference drug (positive control). Negative untreated cell control was used in this assay.

A further experiment deals with p53. Description: RT-PCR gene expression, p53, in HCT116. Type of experiment: cell-based, human. Particulars: HCT116, 6.76 µg/mL, 48 h, relative to untreated control. As to the method: In this current research, relative gene expression related to apoptosis should be studied well because they were very interesting to understand the effect of our selected compound on this important biological process. HCT116 cells were treated with chalcone 7f (6.76µg/mL) for 48 h, and then subjected to qPCR analysis regarding control samples. The effect of chalcone 7f on the expression level of (Bax, p53, Bcl2, and CDK4) genes was assessed using the qPCR technique. […] As indicated in this schematic diagram, the expression of apoptotic genes (Bax and P53) was enhanced by the effect of chalcone 7f to reach (3.662, and 5.435) respectively, relative to the control.
Total RNA was extracted from the compound 7f-treated HCT116 cells and the untreated cells using the RNA Purification Kit GeneJET (Thermo scientific, ON, Canada) 0.1 µg of the extracted RNA was reverse transcribed into complementary DNA (cDNA) using High-Capacity cDNA Reverse Transcription Kit (Thermo Scientific, ON, Canada). qPCR was done using Brilliant SYBR Green qPCR master mix (Applied Biosystems, San Francisco, CA, USA) in One Step Plus Real-Time PCR System (Applied Biosystems, San Francisco, CA, USA). […] The relative gene expression was determined using the 2^−ΔΔCt equation after normalization to the expression of β-actin (housekeeping gene) (Qiagen, CA, USA)(10 pmol/µL)[85], [86]. […]

The test system of another experiment is Human caspase-3. Nature of the experiment: ELISA caspase 3 production in HCT116. The class given is cell-based. Particulars: HCT116, 7f at its IC50 value. As to the method:
Apoptosis is known and identified by specific characterizations in which the activation of caspases plays an important role. In apoptotic pathways, mechanisms of (activation/inactivation) of these proteins are not fully understood. The significance of understanding the mechanistic machinery that controls programmed cell death, being initiated by various chemotherapeutic agents is very critical and attracts the attention of researchers in this area. In this assay, cells were incubated in the absence or presence of 7f with varying concentrations (39, 78, 156, 313, 625, 1250, and 2500 ng/ml), inducing a concentration-dependent increase in caspase3 production in HCT116. […] A concentration of 7f was used at its IC50 value and compared directly to the control. […] However, there was only 103.5 pg/ml induced by control cells. It was interesting to note that chalcone 7f stimulated the production of caspase 3 protein in HCT116 cells 4.8-fold compared to control as outlined in Fig. 7.
The quantitative measurements of Human caspases-3, -8, and -9 concentrations in HCT116 cell culture lysates were performed using ELISA assay. […] All readings were measured immediately at a wavelength of 450 nm. From the readings of the standards, a standard curve was plotted using curve fitting software. Then, the concentrations for unknown samples and controls were measured from the standard curve.

In turn, `N#C/C(=C\c1cn(-c2ccccc2)nc1-c1ccc([N+](=O)[O-])cc1)C(=O)c1c[nH]c2ccccc12` [Compound 7f, (E)-2-(1H-Indole-3-carbonyl)-3-(3-(4-nitrophenyl)-1-phenyl-1H-pyrazol-4-yl)acrylonitrile] had a half-maximal inhibitory concentration (IC50) in the experiment on lung carcinoma (A549) greater than 100 µg/mL. The “RT-PCR fold change p53” value with p53 is reported as 5.435 fold. In the experiment on Human caspase-3, the “caspase 3 production, fold compared to control” value was determined as 4.8 fold. The “caspase 3 protein production” value in the experiment with Human caspase-3 (control cells 103.5 pg/ml) came to 504.1 pg/mL.
